Data published in patent publication US20260294915A1, “COMBINATION THERAPY COMPRISING A MAT2A INHIBITOR AND A TOPOISOMERASE INHIBITOR, A SPLICING INHIBITOR SULFONAMIDE, OR A KIF18 INHIBITOR” (IDEAYA BIOSCIENCES, INC., priority 2023, published 2026).

Assays:
Assay in all cases: 10-day proliferation (CTG), equimolar Compound A + SPLAM (Example 4)
Type in all cases: cell-based
UMUC5 = settings: 10 days, single agent or 1:1 combo; for IC50: 240 h, read-out: gIC50; for IC80: read-out: gIC80; for IC90: read-out: gIC90
Procedure: (§1) A 10-day proliferation assay was performed in a panel of 5 MTAP-deficient and 2 wild type non-small cell lung and bladder cancer cell lines. Optimal cell seeding for all cell lines was determined by assessing the growth over a range of seeding densities in a 384-well format to identify conditions that permitted proliferation for 10 days. Cells were then plated at the optimal seeding density and treated with 20-point, two-fold dilution series of Compound A, the splicing inhibitor sulfonamide (SPLAM), or an equimolar combination of Compound A and the SPLAM. Combinations tested included Compound A in combination with four structurally different SPLAMs. Concentrations tested for Compound A and each SPLAM alone or in combination ranged from 0.04 nM to 20,000 nM. A plate of cells was harvested at the time of compound addition to quantify the number of cells at the start of the combination (T0). For cell quantification, the harvested cells were lysed with Promega CellTiter-Glo (CTG) reagent according to the manufacturer's protocol and the chemiluminescent signal was detected on a Synergy Neo plate reader. CTG estimates cell number through detection of cellular ATP levels. Cells were incubated with the drug combinations at 37° C. with 5% CO2 for 10 days. Cells were then lysed with CTG and the chemiluminescent signal was measured.
(§2) CTG values obtained after the 10-day treatment were background subtracted and expressed as a percent of the T0 value. Data were plotted against compound concentration and fit with a four-parameter equation to generate dose response curves for each single agent and the equimolar combination. Growth ICx (gICx) values ranging from gIC30 to gIC100 were interpolated from the fitted curves. Synergistic growth inhibition was assessed by determination of Combination Index (CI) values at these various points across the titration using the mutually non-exclusive equation [Chou, 1983; Chou, 1981] shown below where A equals the gICx value of Compound A, B equals the gICx value of the SPLAM, and A+B or B+A equals the gICx value of the equimolar combination. A Combination Index value less than 1.0 was considered synergistic.

NCI-H838 = settings: 10 days, single agent or 1:1 combo; for IC80: read-out: gIC80; for IC90: read-out: gIC90; for IC50: Homo sapiens, NCI-H838, 240 h, read-out: gIC50
Procedure: as §1, §2

NCI-H520 = settings: 10 days, single agent or 1:1 combo; for IC80: read-out: gIC80; for IC90: read-out: gIC90; for IC50: Homo sapiens, NCI-H520, 240 h, read-out: gIC50
Procedure: as §1, §2

TCCSUP = settings: 10 days, single agent or 1:1 combo; for IC80: read-out: gIC80; for IC90: read-out: gIC90; for IC50: Homo sapiens, TCC-SUP, 240 h, read-out: gIC50
Procedure: as §1, §2

SW900 = settings: 10 days, single agent or 1:1 combo; for IC80: read-out: gIC80; for IC90: read-out: gIC90; for IC50: Homo sapiens, SW900, 240 h, read-out: gIC50
Procedure: as §1, §2

RT112/84 = settings: 10 days, single agent or 1:1 combo; for IC80: read-out: gIC80; for IC90: read-out: gIC90; for IC50: Homo sapiens, RT112/84, 240 h, read-out: gIC50
Procedure: as §1, §2

UMUC11 = settings: 10 days, single agent or 1:1 combo; for IC50: 240 h, read-out: gIC50; for IC80: read-out: gIC80; for IC90: read-out: gIC90
Procedure: as §1, §2

SMILES: Cc1ccc(NS(=O)(=O)c2cccc(C#N)c2)c2[nH]cc(C#N)c12 [Compound E7820, 3-cyano-N-(3-cyano-4-methyl-1H-indol-7-yl)benzenesulfonamide]
- IC50 (UMUC5): 460 nM
- gIC30 (UMUC5): 330 nM
- gIC40 (UMUC5): 390 nM
- gIC60 (UMUC5): 547 nM
- gIC70 (UMUC5): 673 nM
- gIC100 (UMUC5): 20 µM
- IC80 (UMUC5): 900 nM
- IC90 (UMUC5): 1900 nM
- gIC30 (NCI-H838): 328 nM
- gIC40 (NCI-H838): 357 nM
- gIC60 (NCI-H838): 425 nM
- gIC70 (NCI-H838): 472 nM
- gIC100 (NCI-H838): 20 µM
- IC80 (NCI-H838): 539 nM
- IC90 (NCI-H838): 666 nM
- IC50 (NCI-H838): 388 nM
- gIC30 (NCI-H520): 484 nM
- gIC40 (NCI-H520): 596 nM
- gIC60 (NCI-H520): 920 nM
- gIC70 (NCI-H520): 1214 nM
- gIC100 (NCI-H520): 20 µM
- IC80 (NCI-H520): 1840 nM
- IC90 (NCI-H520): 12000 nM
- IC50 (NCI-H520): 734 nM
- gIC30 (TCCSUP): 20 µM
- gIC40 (TCCSUP): 20 µM
- gIC60 (TCCSUP): 20 µM
- gIC70 (TCCSUP): 20 µM
- gIC100 (TCCSUP): 20 µM
- IC80 (TCCSUP): 20000 nM
- IC90 (TCCSUP): 20000 nM
- IC50 (TCCSUP): 20000 nM
- gIC30 (SW900): 284 nM
- gIC40 (SW900): 290 nM
- gIC60 (SW900): 303 nM
- gIC70 (SW900): 309 nM
- gIC100 (SW900): 362 nM
- IC80 (SW900): 318 nM
- IC90 (SW900): 330 nM
- IC50 (SW900): 296 nM
- gIC30 (RT112/84): 213 nM
- gIC40 (RT112/84): 237 nM
- gIC60 (RT112/84): 290 nM
- gIC70 (RT112/84): 326 nM
- gIC100 (RT112/84): 10.429 µM
- IC80 (RT112/84): 375 nM
- IC90 (RT112/84): 466 nM
- IC50 (RT112/84): 262 nM
- IC50 (UMUC11): 452 nM
- gIC30 (UMUC11): 361 nM
- gIC40 (UMUC11): 404 nM
- gIC60 (UMUC11): 511 nM
- gIC70 (UMUC11): 589 nM
- gIC100 (UMUC11): 20 µM
- IC80 (UMUC11): 713 nM
- IC90 (UMUC11): 1010 nM

SMILES: NS(=O)(=O)c1ccc(S(=O)(=O)Nc2cccc3c(Cl)c[nH]c23)cc1 [Indisulam, N-(3-chloro-1H-indol-7-yl)benzene-1,4-disulfonamide]
- IC50 (UMUC5): 420 nM
- gIC30 (UMUC5): 310 nM
- gIC40 (UMUC5): 363 nM
- gIC60 (UMUC5): 487 nM
- gIC70 (UMUC5): 574 nM
- gIC100 (UMUC5): 20 µM
- IC80 (UMUC5): 707 nM
- IC90 (UMUC5): 990 nM
- gIC30 (NCI-H838): 276 nM
- gIC40 (NCI-H838): 300 nM
- gIC60 (NCI-H838): 355 nM
- gIC70 (NCI-H838): 393 nM
- gIC100 (NCI-H838): 20 µM
- IC80 (NCI-H838): 448 nM
- IC90 (NCI-H838): 551 nM
- IC50 (NCI-H838): 325 nM
- gIC30 (NCI-H520): 470 nM
- gIC40 (NCI-H520): 546 nM
- gIC60 (NCI-H520): 743 nM
- gIC70 (NCI-H520): 897 nM
- gIC100 (NCI-H520): 20 µM
- IC80 (NCI-H520): 1160 nM
- IC90 (NCI-H520): 2070 nM
- IC50 (NCI-H520): 633 nM
- gIC30 (TCCSUP): 20 µM
- gIC40 (TCCSUP): 20 µM
- gIC60 (TCCSUP): 20 µM
- gIC70 (TCCSUP): 20 µM
- gIC100 (TCCSUP): 20 µM
- IC80 (TCCSUP): 20000 nM
- IC90 (TCCSUP): 20000 nM
- IC50 (TCCSUP): 20000 nM
- gIC30 (SW900): 295 nM
- gIC40 (SW900): 300 nM
- gIC60 (SW900): 310 nM
- gIC70 (SW900): 315 nM
- gIC100 (SW900): 357 nM
- IC80 (SW900): 321 nM
- IC90 (SW900): 331 nM
- IC50 (SW900): 305 nM
- gIC30 (RT112/84): 249 nM
- gIC40 (RT112/84): 273 nM
- gIC60 (RT112/84): 327 nM
- gIC70 (RT112/84): 363 nM
- gIC100 (RT112/84): 20 µM
- IC80 (RT112/84): 414 nM
- IC90 (RT112/84): 510 nM
- IC50 (RT112/84): 298 nM
- IC50 (UMUC11): 472 nM
- gIC30 (UMUC11): 369 nM
- gIC40 (UMUC11): 417 nM
- gIC60 (UMUC11): 539 nM
- gIC70 (UMUC11): 628 nM
- gIC100 (UMUC11): 20 µM
- IC80 (UMUC11): 769 nM
- IC90 (UMUC11): 1110 nM
